{
  "source": "patent US20060172953A1",
  "about": "“Treatment of benign prostatic hyperplasia using energolytic agents” (Threshold Pharmaceuticals Inc., priority 2003, published 2006)",
  "key": {"LNCaP cells": {"tested_on": "LNCaP cells", "test": "Apoptosis (caspase 3 activation) in citrate-producing LNCaP cells", "format": "cell-based, human", "method": "(§1) Immunoblotting: Immunoblotting was carried out as described in Example 2. […] Apoptosis assay: […] Lonidamine was added into each well at different concentrations, and then incubated for 6 h at 37° C. To assess the caspase 3 activity, the homogeneous buffer and caspase 3 substrate (Promega No G7791; Promega Corporation, 2800 Woods Hollow Road, Madison Wis. USA 53711) were added into each well in the presence or absence of caspase 3 inhibitor (Promega No G5961). The fluorescence intensity of cleaved substrate was determined using a fluorescence plate reader at excitation 485 nm and emission 530 nm."}, "[1]": {"tested_on": "human prostate epithelial cells", "test": "Apoptosis assay in primary cultures of prostate epithelial cells", "format": "cell-based", "settings": "primary cultures of prostate epithelial cells (accumulate citrate)", "method": "(§2) Primary Cell Cultures: Primary cultures of human prostate epithelial cells (Cambrex No CC-2555) and human prostate stromal cells (Cambrex No CC-2508) were obtained from Cambrex Bio Science Rockland, Inc. (191 Thomaston Street, Rockland, Me. 04841). Apoptosis assay: […] Lonidamine was added into each well at different concentrations, and then incubated for 6 h at 37° C. To assess the caspase 3 activity, the homogeneous buffer and caspase 3 substrate (Promega No G7791; Promega Corporation, 2800 Woods Hollow Road, Madison Wis. USA 53711) were added into each well in the presence or absence of caspase 3 inhibitor (Promega No G5961). The fluorescence intensity of cleaved substrate was determined using a fluorescence plate reader at excitation 485 nm and emission 530 nm."}, "[2]": {"tested_on": "actin, caspase 3, NF-κB, IκBα", "test": "Protein levels of actin, caspase 3, NF-κB, IκBα (immunoblot, specificity control)", "format": "cell-based, human", "settings": "all concentrations tested except 800 μM", "experimental": "Methods: Cells were plated at a density of 5×10^5 cells into a dish, and then maintained in 37° C. incubator (5% CO2) for 2 days. Prior to the assay, cells were rinsed twice with pre-warmed (37° C.) RPMI-1640 Medium (ATCC No. 30-2001; 10 mM HEPES; 1 mM sodium pyruvate; 2 mM L-glutamine; 4500 mg glucose/L; 1500 mg sodium bicarbonate/L). Cells were incubated with 2 ml of culture medium in the absence or presence of lonidamine at different concentrations for 4 hours at 37° C. either under normoxia or hypoxia (oxygen level <0.1%). At the end of the incubation, the dish was placed on ice, and the cells were washed rapidly twice with cold PBS buffer (4° C.). […] The protein concentration was measured using a Bio-Rad protein assay. […] To detect the expression of caspase 3, NF-κB, P65 and IκBα, the membrane was blocked with TBST-containing 5% non-fat milk for 1 h at room temperature, and the proteins were detected by incubation with the corresponding antibodies overnight at 4° C. and with the alkaline phosphatase-conjugated secondary antibody for 1 h. The specific protein was detected using a colorimetric substrate, and the intensity of each protein was quantified using an NIH image system."}, "PC3 cells": {"tested_on": "PC3 cells", "test": "Apoptosis (caspase 3 activation) in citrate-oxidizing PC3 cells", "format": "cell-based, human", "settings": "LNCaP vs PC3 (citrate-oxidizing) cells", "method": "as §1"}, "HIF-1α [3]": {"tested_on": "HIF-1α", "test": "HIF-1α expression in PC3 cells (immunoblot of nuclear and whole-cell extracts)", "format": "cell-based, human", "settings": "4 hours, dose-dependent", "excerpt": "(§3) See Franklin et al.; 1995, Endocrine 3:603-607. […] 20108 USA. Methods: […]"}, "HIF-1α [4]": {"tested_on": "HIF-1α", "test": "HIF-1α expression in LNCaP cells (immunoblot of nuclear and whole-cell extracts)", "format": "cell-based, human", "settings": "for reduction of HIF-1α expression/accumulation (nuclear fraction): citrate-producing cell cultured under hypoxia", "excerpt": "as §3"}, "[5]": {"tested_on": "human prostate stromal cells", "test": "Apoptosis assay in primary cultures of prostate stromal cells", "format": "cell-based", "settings": "primary cultures of prostate stromal cells (do not accumulate citrate)", "method": "as §2"}},
  "data": [
    {"smiles": "O=C(O)c1nn(Cc2ccc(Cl)cc2Cl)c2ccccc12", "note": "[lonidamine, 1-(2,4-dichlorobenzyl)-1H-indazole-3-carboxylic acid]", "values": [
      {"measurement": "activation of caspase 3", "setting": "LNCaP cells; LNCaP (citrate-producing) cells", "result": "induced activation of caspase 3"},
      {"measurement": "time course of caspase 3 activation", "setting": "LNCaP cells; lonidamine-treated cells", "result": "time-dependent process"},
      {"measurement": "induction of apoptosis", "setting": "[1]", "result": "induced apoptosis only in prostate epithelial cells in a dose-dependent manner"},
      {"measurement": "inhibition of protein levels of actin, caspase 3, NF-κB, or IκBα", "setting": "[2]", "result": "no detectable inhibition"},
      {"measurement": "activation of caspase 3, LNCaP compared with PC3", "setting": "PC3 cells", "result": "to a much greater extent than in citrate-oxidizing cells (PC3)"},
      {"measurement": "level of HIF-1α protein in nuclear and whole-cell extracts", "setting": "HIF-1α [3]; hypoxic conditions (oxygen <0.1%)", "result": "reduced the level of HIF-1α protein"},
      {"measurement": "level of HIF-1α protein in nuclear and whole-cell extracts", "setting": "HIF-1α [3]; normoxic conditions", "result": "reduced the level of HIF-1α protein"},
      {"measurement": "level of HIF-1α protein in nuclear and whole-cell extracts", "setting": "HIF-1α [4]; LNCaP cells, hypoxic conditions (oxygen <0.1%), 4 hours, dose-dependent", "result": "reduced the level of HIF-1α protein"},
      {"measurement": "reduction of HIF-1α expression/accumulation (nuclear fraction)", "setting": "HIF-1α [4]; 200 micromolar lonidamine", "result": "about 2 fold"},
      {"measurement": "reduction of HIF-1α expression/accumulation (nuclear fraction)", "setting": "HIF-1α [4]; higher lonidamine concentrations (above 200 micromolar)", "result": "more than 5 fold"},
      {"measurement": "effect on HIF-1α expression, LNCaP compared with PC3", "setting": "HIF-1α [4]; hypoxic conditions (oxygen level <0.1%), LNCaP vs PC3", "result": "more pronounced in LNCaP cells than in PC3 cells"},
      {"measurement": "induction of apoptosis", "setting": "[5]", "result": "induction of apoptosis was not observed"}
    ]}
  ]
}
